Experimental data from patent US7572816B2, “Therapeutic agents for the treatment of cancer, metabolic diseases and skin disorders” (Auspex Pharmaceuticals, Inc., priority 2004, dated 2009).

Assays:
Type in all cases: cell-based
[1] = test system: human head and neck squamous cell carcinoma cells (SCC 103); assay: SCC103 Tumor Cell Proliferation Assay; details: SCC 103 cells; FIG. 7 and FIG. 8
Method: (§1) SCC 103 cells (15,000 per well in 90% EMEM medium plus 10% Fetal Bovine Serum [FBS]) were pre-incubated in a black clear bottom 96-well plate in an atmosphere of 5% CO2 at 37° C. for 24 hours. Stock solutions of compounds in DMSO were diluted using a buffer and dilutions were added to each well. […] The final assay pH was 7.4. The cells were incubated in EMEM medium for an additional 72 hours. Alamar Blue (10% of culture volume) was added and the plate was incubated for an additional 12 hours. Fluorescence intensity was measured using a Gemini plate reader with excitation at 530 nm and emission at 590 nm. A decrease of 50 percent or more (≧50%) in fluorescence intensity relative to vehicle treated controls is an indication of significant anti-cancer activity.

[2] = test system: human hepatic carcinoma cells (HepG2); assay: HepG2 Tumor Cell Proliferation Assay; details: FIG. 3 and FIG. 4
Method: as §1, with “HepG2” for “SCC 103”, “(5,000” for “(15,000”, “[…]” for “96-well”

[3] = test system: human melanoma cells (A375); details: FIG. 1 and FIG. 2
Method: A375 cells (5,000 per well in 90% RPMI-1640 plus 10% Fetal Bovine Serum [FBS]) were pre-incubated in a black clear bottom 96-well plate in an atmosphere of 5% CO2 at 37° C. for 24 hours. Stock solutions of compounds in DMSO were diluted using a buffer and dilutions were added to each well. […] The final assay pH was 7.4. The cells were incubated in RPMI-1 640 with each compound for an additional 72 to 168 hours. Alamar Blue was added and the plate was incubated for an additional 12 hours. Fluorescence intensity was measured using a Gemini plate reader with excitation at 530 nm and emission at 590 nm. A decrease of 50 percent or more (≧50%) in fluorescence intensity relative to vehicle treated controls is an indication of significant anti-cancer activity.
TGI (Total Growth Inhibition): Test compound concentration where the increase in number or mass of cells after 72 to 168 hours is reduced to equal that at time t=0.

[4] = test system: human colon cancer cells (LS174T); assay: LS174T growth inhibition; details: FIG. 5 and FIG. 6

Measured: growth inhibitory effect compared to Bexarotene

C=C(c1ccc(CC(C(N)=O)C(N)=O)cc1)c1cc2c(cc1C)C(C)(C)CCC2(C)C [Example 8, 2-{4-[1-(3,5,5,8,8-Pentamethyl-5,6,7,8-tetrahydro-naphthalen-2-yl)-vinyl]-benzyl}-malonamide]
enhanced activity: all assays above

C=C(c1ccc(CN2C(=O)CSC2=O)cc1)c1cc2c(cc1C)C(C)(C)CCC2(C)C [Example 10, 3-{4-[1-(3,5,5,8,8-Pentamethyl-5,6,7,8-tetrahydro-naphthalen-2-yl)-vinyl]-benzyl}-thiazolidine-2,4-dione]
enhanced activity: [1] | [3]

C=C(c1ccc(CN2C(=O)CN(C)C2=O)cc1)c1cc2c(cc1C)C(C)(C)CCC2(C)C [Example 11, 1-Methyl-3-{4-[1-(3,5,5,8,8-pentamethyl-5,6,7,8-tetrahydro-naphthalen-2-yl)-vinyl]-benzyl}-imidazolidine-2,4-dione]
enhanced activity: all assays above

C=C(c1ccc(CN2C(=O)NC(C)(C)C2=O)cc1)c1cc2c(cc1C)C(C)(C)CCC2(C)C [Example 12, 5,5-Dimethyl-3-{4-[1-(3,5,5,8,8-pentamethyl-5,6,7,8-tetrahydro-naphthalen-2-yl)-vinyl]-benzyl}-imidazolidine-2,4-dione]
enhanced activity: all assays above

C=C(c1ccc(CN2C(=O)CCNC2=O)cc1)c1cc2c(cc1C)C(C)(C)CCC2(C)C [Example 13, 3-{4-[1-(3,5,5,8,8-Pentamethyl-5,6,7,8-tetrahydro-naphthalen-2-yl)-vinyl]-benzyl}-dihydro-pyrimidine-2,4-dione]
enhanced activity: all assays above

C=C(c1ccc(CN2C(=O)N(C)C(C)(C)C2=O)cc1)c1cc2c(cc1C)C(C)(C)CCC2(C)C [Example 14, 1,5,5-Trimethyl-3-{4-[1-(3,5,5,8,8-pentamethyl-5,6,7,8-tetrahydro-naphthalen-2-yl)-vinyl]-benzyl}-imidazolidine-2,4-dione]
enhanced activity: [1] | [3] | [4]
